Counter-ions that a name gives are not always drawn. Like-named read-outs stand apart in the source and are kept apart here. Marks after values point to notes of the source that are not given here.
What was measured:
[1] = test system: children with Autistic spectrum disorders; conditions: for Rec. Speech Age (N = 31) / CARS (N = 35) / Exp. Speech Age (N = 31): Group I combined with Group II
Source text: American Psychiatric Association. Diagnostic and Statistical Manual of Mental Disorders (4th ed.). Washington, D.C.: Author 1994. Diagnosis was confirmed by a pediatric neurologist after completing a comprehensive neurological evaluation and also by a clinical interview with a clinical psychologist. No child was excluded based upon intelligence estimate or developmental language level.
We included patients with abnormal electroencephalograns (EEGs) as they represent an important section of the ASD population. Hollander, E. et al., J. Clin. Psychiatry 2001; 62(7): 530-534. […] Hollander, E. et al., J. Clin. Psychiatry 2001; 62(7): 530-534 DiMartino, A. and Tuchman, R. F., Pediatric Neurology 2001; 25(3): 199-207. Other patients were maintained on corticosteroids (N=6, pulse-dose prednisone or prednisolone), CNS stimulants (N=8, dextroamphetamine/amphetamine or methylphenidate), antidepressants (N=7, fluoxetine hydrochloride or paroxetine), antipsychotics (N=4, risperidone), or alpha adrenergic blocking agents (N=9, clonidine).
The standard donepezil dosage recommendation of 5 milligrams was halved in accordance with pediatric protocols to arrive at a quantity of 2.5 milligrams. The duration of the double-blind, parallel trial was six weeks, at which time all subjects entered open-label treatment for an additional six weeks.
The dose was lowered to 1.25 milligrams or discontinued throughout the 12-week trial if adverse events persisted for more than one week (e.g., irritability, hyperactivity, or gastrointestinal problems). The maximum daily dose was 2.5 milligrams. The medication was adjusted by halving the dose (1.25 mg) if parents noted their children to have tolerable yet persistent gastrointestinal distress, hyperactivity, or irritability. Medication was discontinued if GI intolerability or changes in behavior were considered to be an adverse event (i.e., persisted for more than […]). Medication was administered at dinnertime, unless restlessness occurred in sleep, in which case administration was changed to an earlier time in the day. Dinnertime was selected as the preferred administration time in an attempt to alleviate gastrointestinal side effects observed in the dementia population.
All staff, including nurses, were blinded to the status of the patients on either placebo or drug during the six-week double-blind phase. Patient progress and side effects were monitored at the scheduled appointments by study coordinators, nursing staff, and the primary investigator. Gardner's Receptive One-Word Picture Vocabulary Test (ROWPVT), the EOWPVT-R, and the Childhood Autism Rating Scale (CARS) were administered at baseline, 6-week, and 12-week follow-up visits by the same study coordinator (R.T.):
Outcome Measures: The Receptive One-Word Picture Vocabulary Test, Gardner, M. F. Receptive One-Word Picture Vocabulary Test: ROWPVT. Novato, Calif.: Academic Therapy Publications 1985, examines a child's understanding of language and is an effective tool for assessing receptive language in children with expressive language difficulties. The test was developed for children ages two through twelve. Participants are shown a group of four pictures and asked to point to the picture corresponding to the word presented aurally by the clinician. The test is completed when the child makes six errors of eight consecutive items.
The Expressive One-Word Picture Vocabulary Test—Revised can be used as a tool to determine auditory-visual-verbal association ability as well as expressive language functioning in young children ages two through 12. Gardner, M. F. Expressive One-Word Picture Vocabulary Test (Revised): EOWPVT-R. Novato, Calif.: Academic Therapy Publications 1990. The test was developed to address general concrete concepts, grouping, abstract concepts, and descriptive concepts.

children with ASD = assay: Subsequent long-term observation of children with ASD on DH; format: in vivo, human
Source text: We have subsequently followed over 100 children with ASD on DH for up to 20 months since the conclusion of this study. […] Further long-term use of cholinesterase inhibitors may lead to greater understanding of the possible ability to sustain new neuronal connections in a brain that has more neuronal plasticity than the elderly with Alzheimer's Disease.

Helicobacter pylori = conditions: Matsukura and Tanaka 2000; cited from earlier work
carnosinase = conditions: compared with the parent compound carnosine; Boldyrev 2000; cited from earlier work
[2] = Group I (DH), Baseline to Week 6, placebo group 30%
[3] = Group I (DH, DH) N = 23, BASELINE
[4] = Group I (DH, DH), DH 2.5 milligrams, 6-WEEK, p < .05, BL compared to 6 week
[5] = Group I (DH, DH), DH 2.5 milligrams, 12-WEEK, p < .05, BL compared to 6 and 12 week

For `COc1cc2c(cc1OC)C(=O)C(CC1CCN(Cc3ccccc3)CC1)C2` (stereo not shown) [DH, donepezil hydrochloride], the “children with CARS change scores ([Baseline]-[6 Week score]) indicating improvement of 3.0 or greater” value [1, 2] was 50%, the “children with clinically meaningful worsening of CARS scores” value [1, 2] was 12.5% and the CARS [1, 3] was 34.7 (SD = 7.7). The “Exp. Speech Age (mos.)” value [1, 3] was 35.7 (SD = 27.8) mos, the “Rec. Speech Age (mos.)” value [1, 3] was 38.8 (SD = 23.5) mos and the CARS ([1]; Group I (DH, DH), DH 2.5 milligrams, 6-WEEK) was 33.3 (SD = 8.0). For the same compound, the “Exp. Speech Age (mos.)” value [1, 4] was 43.3 (SD = 27.2)* mos, the “Rec. Speech Age (mos.)” value [1, 4] was 50.3 (SD = 27.0)* mos and the “Exp. Speech Age (mos.)” value [1, 5] was 42.5 (SD = 28.5)*** mos. For the same compound, the “Rec. Speech Age (mos.)” value [1, 5] was 49.7 (SD = 34.2)*** mos, the CARS ([1]; Group I (DH, DH), DH 2.5 milligrams, 12-WEEK, p < .05, BL compared to 12 week) was 30.8 (SD = 7.9)** and the “Rec. Speech Age (N = 31)” value ([1]; 6-weeks DH, p value .002) was 53.2 (SD = 25.8). For the same compound, the “CARS (N = 35)” value ([1]; 6-weeks DH, p value .004) was 32.2 (SD = 8.5), the “Exp. Speech Age (N = 31)” value ([1]; 6-weeks DH, p value .044) was 43.6 (SD = 31.8) and the “CARS (N = 35)” value ([1]; BASELINE before six weeks DH) was 34.7 (SD = 7.4). For the same compound, the “Exp. Speech Age (N = 31)” value ([1]; BASELINE before six weeks DH) was 39.3 (SD = 27.9), the “Rec. Speech Age (N = 31)” value ([1]; BASELINE before six weeks DH) was 43.7 (SD = 22.2) and the “Exp. Speech Age (mos.)” value ([1]; Group II (Placebo, DH): six weeks placebo then six weeks DH, 12-WEEK, end of placebo 33.8 (SD = 32.9), reduced N (=16), p < .05) was 40.9 (SD = 38.8)***^@ mos. The “Rec. Speech Age (mos.)” value ([1]; Group II (Placebo, DH): six weeks placebo then six weeks DH, 12-WEEK, end of placebo 39.83 (SD = 27), reduced N (=16), p < .05, 6 compared to 12 week) was 87.37 (SD = 14.2)**^@ mos, the CARS ([1]; Group II (Placebo, DH): six weeks placebo then six weeks DH, 12-WEEK, end of placebo (6-WEEK) 32.9 (SD = 7.7), p < .05) was 30.9 (SD = 9.1)* and the “patients dropped from the study after the first 6 weeks who had been on DH” value ([1]; of nine patients dropped) was 6/9. For the same compound, the “patients discontinued due to diarrhea or stomach cramping” value ([1]; of the 6 dropped patients on DH) was 2 patients, the “long-term deficits or down-regulation effect” value (children with ASD; over 100 children with ASD on DH for up to 20 months) was “No obvious long-term deficits or suspected down-regulation effect” and the “regressions or lost skills after stopping the medication” value (children with ASD; patients stopped the medication after 6 additional months) was “no patients had major regressions or lost skills”.
For `NCCC(=O)[N-][C@@H](Cc1c[nH]cn1)C(=O)[O-].[Zn+2]` [L-CAZ], the Helicobacter pylori inhibition (Helicobacter pylori) is listed as “inhibited”.
In the case of `CC(=O)NCCC(=O)N[C@@H](Cc1cnc[nH]1)C(=O)O` [N-acetylcarnosine], the rate of hydrolysis (carnosinase) is given as “negligible”.
In the case of `NCCC(=O)NCCc1c[nH]cn1` [carcinine], the rate of hydrolysis (carnosinase) is given as “negligible”.
For `Cn1cncc1C[C@H](NC(=O)CCN)C(=O)O` [ophidine, β-Alanlyl-3-methyl-L-histidine], the rate of hydrolysis (carnosinase) is given as “much more slowly”.

Source: patent US8354438B2, “Neurological functions” (priority 2001, dated 2013)
